Source: patent US8846951B2 (AbbVie Inc., priority 2009, dated 2014)
Read-outs that look alike come from different tables or passages of the source.

How the values were obtained:
5HT2C receptors [1] = molecular target: T1, 5HT2C receptors (Homo sapiens, UniProt P28335); assay: Human 5-HT2C functional assay in 1321N1 cells (intracellular calcium, FLIPR); format: cell-based; parameters: expressed in transfected cells; host or cells: 1321N1 cells; conditions: 5-HT2c agonist activity, maximum calcium response
T1 sequence (P28335 33-458): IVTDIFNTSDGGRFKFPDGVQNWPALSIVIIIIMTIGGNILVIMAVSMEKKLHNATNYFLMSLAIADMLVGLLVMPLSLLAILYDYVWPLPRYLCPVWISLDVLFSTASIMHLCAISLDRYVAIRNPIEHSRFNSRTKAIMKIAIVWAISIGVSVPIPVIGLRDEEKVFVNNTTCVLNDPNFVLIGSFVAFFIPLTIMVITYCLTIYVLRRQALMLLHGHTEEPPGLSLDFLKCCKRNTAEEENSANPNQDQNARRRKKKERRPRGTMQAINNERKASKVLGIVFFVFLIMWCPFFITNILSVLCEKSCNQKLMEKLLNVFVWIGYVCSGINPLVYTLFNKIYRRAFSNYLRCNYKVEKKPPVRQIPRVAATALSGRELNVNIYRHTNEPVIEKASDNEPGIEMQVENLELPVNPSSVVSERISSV
Protocol: (ii) Human 5-HT2C Functional Assay in 1321N1 Cells
Functional activity was determined by testing the effect of the compounds on intracellular calcium levels in 1321N1 cells stably transfected with the human 5-HT2C receptor. Cells were seeded into 96-well plates at 50,000 cells/well and grown overnight in tissue culture medium (DMEM with Glutamax I (Invitrogen), containing 10% dFCS, 50 μg/mL Gentamicin, 400 μg/mL Geneticin) at 37° C. and 7% CO2. Growth medium was replaced by medium without dFCS for overnight incubation. Cells were loaded with a fluorescent calcium-sensitive dye in the presence of 1% probenicid according to the manufacturer's protocol (Fluo4 AM, Molecular Devices). Serial compound dilutions (final concentrations 10^−10 to 10^−5 M) were added to the cells either alone or in the presence of serotonin (10^−9 M) and the maximum calcium response was determined using a FLIPR instrument (Molecular Devices). Concentration-response curves were fitted using a four-parameter logistic equation (GraphPad Prism). The concentration at which the compound exerts half its maximal effect is named the ‘effective concentration 50’ or ‘EC50’ and is listed in Table 2.

[2] = molecular target: T2, human serotonin 5-HT2c receptor (Homo sapiens, UniProt P28335); assay: Human 5-HT2C receptor radioligand binding assay (agonist site, [125I]DOI); conditions: 5-HT2c agonist site; transfected CHO cell membranes; 0.2 nM [125I](±)DOI
T2 construct: expressed in transfected cells; host or cells: CHO cells (membrane homogenates)
T2 sequence (P28335 33-458): T1 sequence (P28335 33-458)
Protocol: (i) Human 5-HT2C Receptor Radioligand Binding Assay
Affinity of compounds for the agonist site of the […], receptor in transfected CHO cells was determined in a radioligand binding assay essentially as described by Bryant, H. U., et al., Life Sciences (1996) 59(15), 1259-1268.

5HT2B receptors = molecular target: T3, 5HT2B receptors (Homo sapiens, UniProt P41595); assay: Human 5-HT2B functional high throughput screening assay in CHO-K1 cells (calcium flux); format: cell-based; conditions: for EC50: CHO-K1 cells, calcium flux; for Emax: 5-HT2B, maximum functional response as percentage relative to the effect of serotonin
T3 construct: expressed in transfected cells; host or cells: CHO-K1 cells
Outline: (§1)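 Agonism was measured as FLIPR fluorescence increase (480/530 nm, 25° C) with Ca4 dye and 2.5 mM probenecid, in serum-starved CHO-K1 lines overexpressing human 5-HT2C or 5-HT2B. Six-point 1:10 dilutions from 10 μM (0.2% DMSO final) were fitted by 4-parameter logistics. Responses were normalised to serotonin to give EC50 and % Emax.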

5HT2C receptors [3] = molecular target: T1, 5HT2C receptors; assay: Human 5-HT2C functional high throughput screening assay in CHO-K1 cells (calcium flux); format: cell-based; parameters: expressed in transfected cells; host or cells: CHO-K1 cells; conditions: for EC50: CHO-K1 cells, calcium flux; for Emax: CHO-K1, 5-HT2C, maximum functional response as percentage relative to the effect of serotonin
Outline: as §1

[4] = 5-HT2B agonist activity, read-out: EC50
[5] = 5-HT2C agonist activity, read-out: EC50

T3 sequence (P41595 whole entry): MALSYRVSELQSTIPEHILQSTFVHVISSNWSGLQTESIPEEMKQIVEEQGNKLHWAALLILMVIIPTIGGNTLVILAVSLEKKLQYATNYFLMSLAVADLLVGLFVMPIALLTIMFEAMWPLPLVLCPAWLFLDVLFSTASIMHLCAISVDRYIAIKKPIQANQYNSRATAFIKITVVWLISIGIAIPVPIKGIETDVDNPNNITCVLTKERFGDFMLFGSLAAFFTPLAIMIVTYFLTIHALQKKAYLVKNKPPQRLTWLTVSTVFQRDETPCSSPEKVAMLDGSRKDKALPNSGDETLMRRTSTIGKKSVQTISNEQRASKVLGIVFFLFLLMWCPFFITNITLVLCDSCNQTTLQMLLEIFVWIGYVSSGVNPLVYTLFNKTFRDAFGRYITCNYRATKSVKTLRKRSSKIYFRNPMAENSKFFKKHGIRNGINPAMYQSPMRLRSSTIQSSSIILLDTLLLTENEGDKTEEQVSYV

SMILES: O=C1NC[C@@H]2CN(Cc3ccccc3)C[C@H]2c2cc(Cl)c(Cl)cc21 (relative stereo) [Example 56, Trans-2-benzyl-8,9-dichloro-1,2,3,3a,4,5-hexahydrobenzo[c]pyrrolo[3,4-e]azepin-6(10bH)-one]
- EC50 (5HT2C receptors [1]): 15.3 nM
- Ki [2]: 70 nM

SMILES: COc1cc(CN2C[C@H]3CNC(=O)c4ccccc4[C@@H]3C2)cc(OC)c1 (relative stereo) [Example 38, Trans-2-(3,5-dimethoxybenzyl)-1,2,3,3a,4,5-hexahydrobenzo[c]pyrrolo[3,4-e]azepin-6(10bH)-one]
- EC50 (5HT2C receptors [1]): 6.24 nM
- Ki [2]: 8.6 nM

SMILES: O=C1NC[C@@H]2CN(Cc3cc(Cl)ccc3Cl)C[C@H]2c2ccccc21 (relative stereo) [Example 31, Trans-2-(2,5-dichlorobenzyl)-1,2,3,3a,4,5-hexahydrobenzo[c]pyrrolo[3,4-e]azepin-6(10bH)-one]
- EC50 (5HT2C receptors [1]): 4.05 nM

SMILES: O=C1NC[C@@H]2CN(Cc3ccccc3)C[C@@H]2c2ccccc21 (relative stereo) [Example 3, Cis-2-benzyl-1,2,3,3a,4,5-hexahydrobenzo[c]pyrrolo[3,4-e]azepin-6(10bH)-one]
- EC50 (5HT2C receptors [1]): 101 nM

SMILES: Cc1cc(C)cc(CN2C[C@H]3CNC(=O)c4ccccc4[C@@H]3C2)c1 (relative stereo) [Example 22, Trans-2-(3,5-dimethylbenzyl)-1,2,3,3a,4,5-hexahydrobenzo[c]pyrrolo[3,4-e]azepin-6(10bH)-one]
- EC50 (5HT2C receptors [1]): 5.22 nM

SMILES: Cc1cccc(CN2C[C@H]3CNC(=O)c4ccccc4[C@@H]3C2)c1 (relative stereo) [Example 26, Trans-2-(3-methylbenzyl)-1,2,3,3a,4,5-hexahydrobenzo[c]pyrrolo[3,4-e]azepin-6(10bH)-one]
- EC50 (5HT2C receptors [1]): 10.3 nM

SMILES: N#Cc1cccc(CN2C[C@H]3CNC(=O)c4ccccc4[C@@H]3C2)c1 (relative stereo) [Example 36, 3-((Trans-6-oxo-1,3a,4,5,6,10b-hexahydrobenzo[c]pyrrolo[3,4-e]azepin-2(3H)-yl)methyl)benzonitrile]
- EC50 (5HT2C receptors [1]): 77.2 nM

SMILES: O=C1NC[C@@H]2CN(Cc3ccccc3F)C[C@H]2c2ccccc21 (relative stereo) [Example 35, Trans-2-(2-fluorobenzyl)-1,2,3,3a,4,5-hexahydrobenzo[c]pyrrolo[3,4-e]azepin-6(10bH)-one]
- EC50 (5HT2C receptors [1]): 12.3 nM

SMILES: O=C1NC[C@@H]2CN(Cc3cccc(F)c3)C[C@@H]2c2ccccc21 (relative stereo) [Example 42, Cis-2-(3-fluorobenzyl)-1,2,3,3a,4,5-hexahydrobenzo[c]pyrrolo[3,4-e]azepin-6(10bH)-one]
- EC50 (5HT2C receptors [1]): 18.1 nM

SMILES: Cc1ccc(CN2C[C@H]3CNC(=O)c4ccccc4[C@@H]3C2)c(C)c1 (relative stereo) [Example 24, Trans-2-(2,4-dimethylbenzyl)-1,2,3,3a,4,5-hexahydrobenzo[c]pyrrolo[3,4-e]azepin-6(10bH)-one]
- EC50 (5HT2C receptors [1]): 45.6 nM

SMILES: O=C1NC[C@@H]2CN(Cc3cccc4ccccc34)C[C@@H]2c2ccccc21 (relative stereo) [Example 43, Cis-2-(naphthalen-1-ylmethyl)-1,2,3,3a,4,5-hexahydrobenzo[e]pyrrolo[3,4-e]azepin-6(10bH)-one]
- EC50 (5HT2C receptors [1]): 81.9 nM

SMILES: O=C1NC[C@@H]2CN(Cc3ccccc3)C[C@H]2c2ccccc21 (racemic) [Example 1, Trans-2-benzyl-1,2,3,3a,4,5-hexahydrobenzo[c]pyrrolo[3,4-e]azepin-6(10bH)-one]
- EC50 (5HT2B receptors; [4]): > 10000 nM
- Emax (5HT2B receptors): inactive
- EC50 (5HT2C receptors [3]; [5]): 20 nM
- Emax (5HT2C receptors [3]; read-out: Emax): > 120%
- EC50 (5HT2C receptors [1]): 11.2 nM

SMILES: Cc1ccc(C)c(CN2C[C@H]3CNC(=O)c4ccccc4[C@@H]3C2)c1 (relative stereo) [Example 23, Trans-2-(2,5-dimethylbenzyl)-1,2,3,3a,4,5-hexahydrobenzo[c]pyrrolo[3,4-e]azepin-6(10bH)-one]
- EC50 (5HT2C receptors [1]): 8.85 nM

SMILES: O=C1NC[C@@H]2CN(Cc3cccc(Cl)c3)C[C@@H]2c2ccccc21 (relative stereo) [Example 41, Cis-2-(3-chlorobenzyl)-1,2,3,3a,4,5-hexahydrobenzo[c]pyrrolo[3,4-e]azepin-6(10bH)-one]
- EC50 (5HT2C receptors [1]): 4.94 nM

SMILES: O=C1NC[C@@H]2CNC[C@H]2c2ccccc21 (relative stereo) [Example 2, Trans-1,2,3,3a,4,5-hexahydrobenzo[c]pyrrolo[3,4-e]azepin-6(10bH)-one]
- Ki [2]: 22 nM

SMILES: Cc1ccc(CN2C[C@H]3CNC(=O)c4ccccc4[C@@H]3C2)cc1C (relative stereo) [Example 25, Trans-2-(3,4-dimethylbenzyl)-1,2,3,3a,4,5-hexahydrobenzo[c]pyrrolo[3,4-e]azepin-6(10bH)-one]
- EC50 (5HT2C receptors [1]): 40.2 nM

SMILES: O=C1NC[C@@H]2CN(Cc3cccc(F)c3)C[C@H]2c2ccccc21 (relative stereo) [Example 34, Trans-2-(3-fluorobenzyl)-1,2,3,3a,4,5-hexahydrobenzo[c]pyrrolo[3,4-e]azepin-6(10bH)-one]
- EC50 (5HT2C receptors [1]): 12 nM

SMILES: O=C1NC[C@@H]2CN(Cc3cccc(Cl)c3)C[C@H]2c2ccccc21 (relative stereo) [Example 32, Trans-2-(3-chlorobenzyl)-1,2,3,3a,4,5-hexahydrobenzo[c]pyrrolo[3,4-e]azepin-6(10bH)-one]
- EC50 (5HT2C receptors [1]): 19.3 nM

SMILES: O=C1NC[C@@H]2CN(Cc3ccccc3Cl)C[C@H]2c2ccccc21 (relative stereo) [Example 33, Trans-2-(2-chlorobenzyl)-1,2,3,3a,4,5-hexahydrobenzo[c]pyrrolo[3,4-e]azepin-6(10bH)-one]
- EC50 (5HT2C receptors [1]): 32.9 nM

SMILES: O=C1NC[C@@H]2CNC[C@@H]2c2ccccc21 (relative stereo) [Example 4, Cis-1,2,3,3a,4,5-hexahydrobenzo[c]pyrrolo[3,4-e]azepin-6(10bH)-one]
- EC50 (5HT2C receptors [1]): 202 nM

SMILES: O=C1NC[C@@H]2CN(Cc3cc(Cl)cc(Cl)c3)C[C@@H]2c2ccccc21 (relative stereo) [Example 40, Cis-2-(3,5-dichlorobenzyl)-1,2,3,3a,4,5-hexahydrobenzo[c]pyrrolo[3,4-e]azepin-6(10bH)-one]
- EC50 (5HT2C receptors [1]): 11.3 nM

SMILES: CC(C)=Cc1ccc2c(c1)C(=O)NC[C@@H]1CN(C)C[C@@H]21 (relative stereo) [Example 197, Trans-2-methyl-8-(2-methylprop-1-enyl)-1,2,3,3a,4,5-hexahydrobenzo[e]pyrrolo[3,4-c]azepin-6(10bH)-one]
- Emax (5HT2B receptors): inactive
- EC50 (5HT2B receptors; EC50, 5-HT2B agonist activity): > 10000 nM
- Emax (5HT2C receptors [3]): > 120%
- EC50 (5HT2C receptors [3]; EC50, 5-HT2C agonist activity): 3 nM

SMILES: O=C1NC[C@@H]2CNC[C@H]2c2ccc(OCC3CCCCC3)cc21 (relative stereo) [Example 167, Trans-8-(cyclohexylmethoxy)-1,2,3,3a,4,5-hexahydrobenzo[e]pyrrolo[3,4-c]azepin-6(10bH)-one]
- Emax (5HT2B receptors): inactive
- EC50 (5HT2B receptors; EC50, 5-HT2B agonist activity): > 10000 nM
- Emax (5HT2C receptors [3]): > 120%
- EC50 (5HT2C receptors [3]; EC50, 5-HT2C agonist activity): 5 nM

SMILES: CN1C[C@H]2CNC(=O)c3cc(C4CCOCC4)ccc3[C@@H]2C1 (relative stereo) [Example 267, Trans-2-methyl-8-(tetrahydro-2H-pyran-4-yl)-1,2,3,3a,4,5-hexahydrobenzo[c]pyrrolo[3,4-e]azepin-6(10bH)-one]
- EC50 (5HT2B receptors; [4]): > 10000 nM
- Emax (5HT2B receptors): inactive
- EC50 (5HT2C receptors [3]; [5]): 1000 nM
- Emax (5HT2C receptors [3]; read-out: Emax): 90%

SMILES: CN1C[C@H]2CNC(=O)c3cc(-c4ccc5c(c4)C(=O)CCO5)ccc3[C@@H]2C1 (relative stereo) [Example 390, Trans-2-methyl-8-(4-oxo-3,4-dihydro-2H-chromen-6-yl)-2,3,3a,4,5,10b-hexahydropyrrolo[3,4-d][2]benzazepin-6(1H)-one]
- EC50 (5HT2B receptors; [4]): > 10000 nM
- Emax (5HT2B receptors): inactive
- EC50 (5HT2C receptors [3]; [5]): 8 nM
- Emax (5HT2C receptors [3]; read-out: Emax): 90%
